Measured values reported in US12637440B2, “Amide derivative useful as diacylglycerol acyltransferase 2 inhibitor, and use thereof” (LG CHEM, LTD., priority 2019, dated 2026).

biological target: T1, Recombinant human DGAT2 protein (Homo sapiens, UniProt Q96PD7); assay: Measurement of inhibitory effect against DGAT2 enzyme activity (SPA, Phospholipid FlashPlate, [14C]-TG production); assay type: biochemical; details: concentration inhibiting [14C]-labeled triacyl glycerol (TG) production by 50%; 2 μg DGAT2-membrane protein from Sf-21 cells, 37° C.
T1 construct: FLAG (DYKDDDDK); (N); made in house; host or cells: Sf-21 insect cells (BacPAK baculovirus system); used as a membrane preparation
T1 sequence (Q96PD7 1-388): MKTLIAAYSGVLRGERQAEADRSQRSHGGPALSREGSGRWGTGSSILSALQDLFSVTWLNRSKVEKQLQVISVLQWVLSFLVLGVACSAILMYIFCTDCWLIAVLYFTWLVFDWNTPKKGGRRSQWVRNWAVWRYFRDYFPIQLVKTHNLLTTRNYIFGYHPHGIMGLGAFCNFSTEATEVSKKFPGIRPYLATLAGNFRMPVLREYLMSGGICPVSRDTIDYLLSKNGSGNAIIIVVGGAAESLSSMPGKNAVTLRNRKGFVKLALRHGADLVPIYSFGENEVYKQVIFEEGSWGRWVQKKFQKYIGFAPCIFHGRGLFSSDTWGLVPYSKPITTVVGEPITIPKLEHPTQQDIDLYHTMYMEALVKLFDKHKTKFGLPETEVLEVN
Outline: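 Membranes from Sf-21 cells expressing human DGAT2 (2 μg) preincubated 20 min at 37 °C with compound (3 nM–10 μM, 1% DMSO) in HEPES/MgCl2/BSA with 50 μM 1,2-dioleoyl glycerol, then 1 μM [14C]oleoyl-CoA for 15 min. [14C]-TG measured by SPA FlashPlate; inhibition as % of untreated control.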

Row | IC50 [nM] | Compound
1 | 60 | CCOc1ccccc1O[C@@H]1CCCN(c2nccc(NC(=O)Cc3ccc(CC(C)(C)C(=O)O)cc3)n2)C1 [Example 112, (R)-3-(4-(2-((2-(3-(2-ethoxyphenoxy)piperidin-1-yl)pyrimidin-4-yl)amino)-2-oxoethyl)phenyl)-2,2-dimethylpropanoic acid]
2 | 19 | CCOc1ccccc1O[C@@H]1CCCN(c2cncc(NC(=O)c3ccc([N+](=O)[O-])cc3)n2)C1 [Example 10, (R)—N-(6-(3-(2-ethoxyphenoxy)piperidin-1-yl)pyrazin-2-yl)-4-nitrobenzamide]
3 | 76 | CCOc1ccccc1O[C@@H]1CCCN(c2cncc(NC(=O)C(C)(C)c3ccc(CC(C)(C)C(=O)O)cc3)n2)C1 [Example 110, (R)-3-(4-(1-((6-(3-(2-ethoxyphenoxy)piperidin-1-yl)pyrazin-2-yl)amino)-2-methyl-1-oxopropan-2-yl)phenyl)-2,2-dimethylpropanoic acid]
4 | 140 | CCOc1cccnc1O[C@@H]1CCCN(c2nccc(NC(=O)Cc3ccc(CC(C)(C)C(=O)O)cc3)n2)C1 [Example 115, (R)-3-(4-(2-((2-(3-((3-ethoxypyridin-2-yl)oxy)piperidin-1-yl)pyrimidin-4-yl)amino)-2-oxoethyl)phenyl)-2,2-dimethylpropanoic acid]
5 | 310 | CCOc1ccccc1O[C@@H]1CCCN(c2cncc(NC(=O)CCc3ccc(C(=O)O)c(Cl)c3)n2)C1 [Example 47, (R)-2-chloro-4-(3-((6-(3-(2-ethoxyphenoxy)piperidin-1-yl)pyrazin-2-yl)amino)-3-oxopropyl)benzoic acid]
6 | 51000 | CCOc1ccccc1O[C@@H]1CCCN(c2cncc(NC(=O)N3CCC(C(=O)O)C3)n2)C1 (stereo partly drawn) [Example 5, 1-((6-((R)-3-(2-ethoxyphenoxy)piperidin-1-yl)pyrazin-2-yl)carbamoyl)pyrrolidine-3-carboxylic acid]
7 | 200 | CCOc1ccccc1O[C@@H]1CCCN(c2cncc(NC(=O)Cc3ccc(OC(C)(C)C(=O)O)cc3)n2)C1 [Example 38]
8 | 30 | CCOc1ccccc1O[C@@H]1CCCN(c2cncc(NC(=O)Cc3ccc(CC(N)=O)cc3)n2)C1 [Example 35]
9 | 150 | CC(C)(Cc1ccc(CC(=O)Nc2cncc(N3CCC[C@@H](Oc4ccccc4OC4CC4)C3)n2)cc1)C(=O)O [Example 95, (R)-3-(4-(2-((6-(3-(2-cyclopropoxyphenoxy)piperidin-1-yl)pyrazin-2-yl)amino)-2-oxoethyl)phenyl)-2,2-dimethylpropanoic acid]
10 | 29 | CCOc1ccccc1O[C@@H]1CCCN(c2cncc(NC(=O)Cc3cccc(Cl)c3)n2)C1 [Example 30, (R)-2-(3-chlorophenyl)-N-(6-(3-(2-ethoxyphenoxy)piperidin-1-yl)pyrazin-2-yl)acetamide]
11 | 330 | CCOc1ccccc1O[C@@H]1CCCN(c2cncc(NC(=O)C(C)Cc3ccc(C(=O)O)cc3)n2)C1 (stereo partly drawn) [Example 43, 4-(3-((6-((R)-3-(2-ethoxyphenoxy)piperidin-1-yl)pyrazin-2-yl)amino)-2-methyl-3-oxopropyl)benzoic acid]
12 | 120 | CCOc1ccccc1O[C@@H]1CCCN(c2cncc(NC(=O)Cc3ccc(C[C@H](C)C(=O)O)cc3)n2)C1 [Example 64]
13 | 1300 | CCOc1ccccc1O[C@@H]1CCCN(c2cncc(NC(=O)/C(C)=C/c3ccc(C(=O)O)cc3)n2)C1 [Example 42, (R,E)-4-(3-((6-(3-(2-ethoxyphenoxy)piperidin-1-yl)pyrazin-2-yl)amino)-2-methyl-3-oxoprop-1-en-1-yl)benzoic acid]
14 | 18 | CCOc1ccccc1O[C@@H]1CCCN(c2cncc(NC(=O)CCc3ccccc3)n2)C1 [Example 29, (R)—N-(6-(3-(2-ethoxyphenoxy)piperidin-1-yl)pyrazin-2-yl)-3-phenylpropanamide]
15 | > 10000 | CCOc1ccccc1O[C@@H]1CCCN(c2cncc(NC(=O)C(C)(C)c3ccc(N4CCC(C(=O)O)CC4)cc3)n2)C1 [Example 86, (R)-1-(4-(1-((6-(3-(2-ethoxyphenoxy)piperidin-1-yl)pyrazin-2-yl)amino)-2-methyl-1-oxopropan-2-yl)phenyl)piperidine-4-carboxylic acid]
